From the supplement of paper PMC10307832

What was measured:
Test in all cases: relative viability (nuclei count vs DMSO), 5 days (fraction); higher = more cells survive
BAM7 + Navitoclax = compound: CCOC1=CC=CC=C1N=NC2=C(NN(C2=O)C3=NC(=CS3)C4=CC=CC=C4)C [BAM7] + CC1(C)CCC(c2ccc(Cl)cc2)=C(CN2CCN(c3ccc(C(=O)NS(=O)(=O)c4ccc(N[C@H](CCN5CCOCC5)CSc5ccccc5)c(S(=O)(=O)C(F)(F)F)c4)cc3)CC2)C1 [Navitoclax] (partner 0.5 µM)
In short: (§1)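 Lung cancer cell lines in 1536-well plates got either a single drug or a fixed anchor-drug dose together with five library-drug doses (not always all listed) in √10 steps, by pin tool, on the day after seeding. Nuclei were counted after 5 days, and relative viability is the treated-to-vehicle ratio of nuclei counts. Values are medians of duplicate plates.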

BAM7 + Foretinib = compound: CCOC1=CC=CC=C1N=NC2=C(NN(C2=O)C3=NC(=CS3)C4=CC=CC=C4)C [BAM7] + COc1cc2c(Oc3ccc(NC(=O)C4(C(=O)Nc5ccc(F)cc5)CC4)cc3F)ccnc2cc1OCCCN1CCOCC1 [Foretinib] (partner 0.25 µM)
In short: as §1

[1] = compound: CCn1c(-c2nonc2N)nc2c(C#CC(C)(C)O)ncc(OC[C@H]3CCCNC3)c21
In short: (§2)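 Lung cancer cell lines in 1536-well plates were kept overnight at 37 °C, then pinned with five library-drug doses (not always all listed) spaced by √10 on vehicle-anchored plates. After 5 days without medium change, cells were fixed, permeabilised and Hoechst-stained in one step, imaged at 4×, and nuclei were counted with MetaXpress. Viability is treated-well nuclei divided by vehicle-well nuclei, taken as the median over plates. Plates passed only with control CV below 25% and at least one doubling.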

BAM7 = compound: CCOC1=CC=CC=C1N=NC2=C(NN(C2=O)C3=NC(=CS3)C4=CC=CC=C4)C [BAM7]
In short: as §2

Cell Line | relative viability (BAM7 + Navitoclax; first compound 0.5 µM) | relative viability (BAM7 + Navitoclax; first compound 5 µM) | relative viability (BAM7 + Navitoclax; first compound 15.81 µM) | relative viability (BAM7 + Navitoclax; first compound 50 µM) | relative viability (BAM7 + Foretinib; first compound 0.5 µM) | relative viability (BAM7 + Foretinib; first compound 5 µM) | relative viability (BAM7 + Foretinib; first compound 15.81 µM) | relative viability (BAM7 + Foretinib; first compound 50 µM) | relative viability ([1]; 0.01 µM) | relative viability ([1]; 0.03162 µM) | relative viability ([1]; 0.1 µM) | relative viability ([1]; 0.3162 µM) | relative viability ([1]; 1 µM) | relative viability (BAM7; 0.5 µM) | relative viability (BAM7; 5 µM) | relative viability (BAM7; 15.81 µM) | relative viability (BAM7; 50 µM)
IA-LM | 0.689 | 0.556 | 0.556 | 0.658 | 1.36 | 1.2 | 1.03 | 1.21 | 1.01 | 1.05 | 1.01 | 0.852 | 0.853 | 0.988 | 0.979 | 0.85 | 1.15
NCI-H647 | 1.11 | 1.16 | 0.899 | 1.14 | 1.4 | 1.2 | 1.16 | 1.21 | 0.982 | 0.995 | 0.952 | 0.918 | 0.981 | 1.02 | 1.07 | 0.894 | 1.07
SK-MES-1 | 1.37 | 1.36 | 1.23 | 1.23 | 0.913 | 1.06 | 0.937 | 1.08 | 0.998 | 1.01 | 1.02 | 0.944 | 0.993 | 1.04 | 1.08 | 0.973 | 1.03
NCI-H2170 | 0.559 | 0.581 | 0.479 | 0.598 | 0.973 | 0.994 | 0.91 | 1 | 0.962 | 1.01 | 0.996 | 0.91 | 0.958 | 0.972 | 0.993 | 0.904 | 0.958
NCI-H2085 | 1.13 | 1.24 | 1.02 | 1.21 | 0.973 | 1.18 | 0.743 | 1.19 | 0.991 | 0.977 | 1 | 0.937 | 0.97 | 0.995 | 0.976 | 0.933 | 1.01
SW 1573 | 0.89 | 1.02 | 1.24 | 1.06 | 0.939 | 0.997 | 1.04 | 0.966 | 0.98 | 0.932 | 0.871 | 0.677 | 0.777 | 1.03 | 1.18 | 0.969 | 1.08
NCI-H727 | 0.419 | 0.458 | 0.471 | 0.441 | 0.851 | 1.19 | 0.864 | 0.801 | 1.02 | 0.866 | 0.871 | 0.848 | 0.973 | 0.962 | 0.811 | 0.881 | 0.937
NCI-H441 | 0.688 | 0.772 | 0.635 | 0.956 | 1.09 | 1.13 | 0.767 | 1.14 | 0.927 | 1.05 | 1.04 | 0.948 | 0.99 | 1.16 | 1.06 | 1.1 | 1.44
LOU-NH91 | 0.708 | 0.75 | 0.69 | 0.655 | 0.913 | 1.03 | 0.904 | 0.936 | 1 | 0.924 | 0.989 | 0.9 | 0.888 | 0.974 | 1.06 | 0.939 | 0.973
NCI-H3122 | 1.07 | 0.984 | 1.06 | 1.07 | 0.838 | 0.856 | 0.916 | 0.866 | 1 | 0.973 | 1.06 | 0.991 | 1.01 | 1.02 | 1.09 | 1.01 | 1.01
NCI-H460 | 1.36 | 1.36 | 1.03 | 1.08 | 0.926 | 0.982 | 0.878 | 0.969 | 0.977 | 0.983 | 0.983 | 0.998 | 0.949 | 1.02 | 0.989 | 0.895 | 0.969
